Target: T1, PLK1 (Homo sapiens, UniProt P53350)
T1 construct: PLK kinase domain (amino acids 21-346 preceded by MKKGHHHHHHD); made in house; host or cells: baculovirus infected T. ni cells
Assay: Assay for inhibition of PLK1 (SPA kinase assay)
Type: biochemical
Conditions: 1 μM ATP, 2 nM PLK1 kinase domain, read-out: PLK1 pIC50 (converted)
Method: I. Assay for Inhibition of PLK1
A. Preparation of 6× N-terminal His-tagged PLK Kinase Domain
6× N-terminal His-tagged PLK kinase domain (amino acids 21-346 preceded by MKKGHHHHHHD) SEQ ID: No. 1. was prepared from baculovirus infected T. ni cells under polyhedrin promoter control. All procedures were performed at 4° C. Cells were lysed In 50 mM HEPES, 200 mM NaCl, 50 mM imidazole, 5% glycerol; pH 7.5. The homogenate was centrifuged at 14K rpm in a SLA-1500 rotor for 1 hr and the supernatant filtered through a 1.2 micron filter. The supernatant was loaded onto a Nickel chelating Sepharose (Amersham Pharmacia) column and washed with lysis buffer. Protein was eluted using 20%, 30% and 100% buffer B steps where buffer B was 50 mM HEPES, 200 mM NaCl, 300 mM imidazole, 5% glycerol; pH 7.5. Fractions containing PLK were determined by SDS-PAGE. Fractions containing PLK were diluted five-fold with 50 mM HEPES, 1 mM DTT, 5% glycerol; pH 7.5, then loaded on an SP Sepharose (Amersham Pharmacia) column. After washing the column with 50 mM HEPES, 1 mM DTT, 5% glycerol; pH 7.5, PLK was step eluted with 50 mM HEPES, 1 mM DTT, 500 mM NaCl; 5% glycerol; pH 7.5. PLK was concentrated using a 10 kDa molecular weight cutoff membrane and then loaded onto a Superdex 200 gel filtration (Amersham Pharmacia) column equilibrated in 25 mM HEPES, 1 mM DTT, 500 mM NaCl, 5% glycerol; pH 7.5. Fractions containing PLK were determined by SDS-PAGE. PLK was pooled, aliquoted and stored at −80° C. Samples were quality controlled using mass spectrometry, N-terminal sequencing and amino acid analysis.
B. Enzyme Activity +/− Inhibitors was Determined as Follows:
All measurements were obtained under conditions where signal production increased linearly with time and enzyme. Test compounds were added to white 384-well assay plates (0.1 μL for 10 μL and some 20 μL assays, 1 μL for some 20 μL assays) at variable known concentrations in 100% DMSO. DMSO (1-5% final, as appropriate) and EDTA (65 mM in reaction) were used as controls. Reaction Mix was prepared as follows at 22° C.: • 25 mM HEPES, pH 7.2 • 15 mM MgCl2 • 1 μM ATP • 0.05 μCi/well ^33P-γ ATP (10 Ci/mMol) • 1 μM substrate peptide (Biotin-Ahx-SFNDTLDFD) SEQ ID:No. 2. • 0.15 mg/mL BSA • 1 mM DTT • 2 nM PLK1 kinase domain (added last)
Reaction Mix (10 or 20 μL) was quickly added to each well immediately following addition of enzyme via automated liquid handlers and incubated 1-1.5 h at 22° C. The 20 μL enzymatic reactions were stopped with 50 μL of stop mix (50 mM EDTA, 4.0 mg/mL Streptavidin SPA beads in Standard Dulbecco's PBS (without Mg^2+ and Ca^2+), 50 μM ATP) per well. The 10 μL reactions were stopped with 10 μL of stop mix (50 mM EDTA, 3.0 mg/mL Streptavidin-coupled SPA imaging Beads (“LeadSeeker”) in Standard Dulbecco's PBS (without Mg^2+ and Ca^2+), 50 μM ATP) per well. Plates were sealed with clear plastic seals, spun at 500×g for 1 min or settled overnight, and counted in Packard TopCount for 30 seconds/well (regular SPA) or imaged using a Viewlux imager (LeadSeeker SPA). Signal above background (EDTA controls) was converted to percent Inhibition relative to that obtained in control (DMSO-only) wells.

T1 sequence (P53350 21-346): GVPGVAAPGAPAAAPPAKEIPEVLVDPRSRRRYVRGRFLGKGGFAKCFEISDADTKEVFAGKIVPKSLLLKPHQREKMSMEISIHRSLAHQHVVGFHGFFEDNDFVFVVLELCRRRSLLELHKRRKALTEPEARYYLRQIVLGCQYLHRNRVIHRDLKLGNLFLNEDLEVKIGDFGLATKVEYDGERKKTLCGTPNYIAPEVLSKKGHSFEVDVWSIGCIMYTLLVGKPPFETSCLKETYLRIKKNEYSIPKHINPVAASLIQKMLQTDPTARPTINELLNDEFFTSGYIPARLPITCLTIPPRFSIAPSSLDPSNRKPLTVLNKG

| IC50 [nM] | Structure (SMILES) |
| --- | --- |
| < 100 | CC(Oc1cc(-n2cnc3cc(-c4cnn(C)c4)ccc32)sc1C(N)=O)c1cccc(OC2CCNCC2)c1 (racemic) [Example 73, (+/−)-5-[5-(1-Methyl-1H-pyrazol-4-yl)-1H-benzimidazol-1-yl]-3-({1-[3-(4-piperidinyloxy)phenyl]ethyl}oxy)-2-thiophenecarboxamide] |
| < 100 | CC(Oc1cc(-n2cnc3cc(-c4cnn(C)c4)ccc32)sc1C(N)=O)c1cccc(OC2CCN(C)CC2)c1 (racemic) [Example 74, (+/−)-3-[(1-{3-[(1-methyl-4-piperidinyl)oxy]phenyl}ethyl)oxy]-5-[5-(1-methyl-1H-pyrazol-4-yl)-1H -benzimidazol-1-yl]-2-thiophenecarboxamide] |
| < 100 | CC(Oc1cc(-n2cnc3cc(-c4cnn(C)c4)ccc32)sc1C(N)=O)c1cccc(OC2CCNCC2)c1F (racemic) [Example 75, (+/−)-3-({1-[2-Fluoro-3-(4-piperidinyloxy)phenyl]ethyl}oxy)-5-[5-(1-methyl-1H-pyrazol-4-yl)-1H-benzimidazol-1-yl]-2-thiophenecarboxamide] |
| < 100 | CC(Oc1cc(-n2cnc3cc(-c4cnn(C)c4)ccc32)sc1C(N)=O)c1cccc(OC2CCN(C)CC2)c1F (racemic) [Example 76, (+/−)-3-[(1-{2-Fluoro-3-[(1-methyl-4-piperidinyl)oxy]phenyl}ethyl)oxy]-5-[5-(1-methyl-1H-pyrazol-4-yl)-1H-benzimidazol-1-yl]-2-thiophenecarboxamide] |
| 100 to 1000 | CC(Oc1cc(-n2cnc3cc(-c4cnn(C)c4)ccc32)sc1C(N)=O)c1ccnc(OC2CCNCC2)n1 (racemic) [Example 77, (+/−)-5-[5-(1-Methyl-1H -pyrazol-4-yl)-1H-benzimidazol-1-yl]-3-({1-[2-(4-piperidinyloxy)-4-pyrimidinyl]ethyl}oxy)-2-thiophenecarboxamide] |
| 100 to 1000 | CC(Oc1cc(-n2cnc3cc(-c4cnn(C)c4)ccc32)sc1C(N)=O)c1ccnc(OC2CCN(C)CC2)n1 (racemic) [Example 78, (+/−)-3-[(1-{2-[(1-methyl-4-piperidinyl)oxy]-4-pyrimidinyl}ethyl)oxy]-5-[5-(1-methyl-1H-pyrazol-4-yl)-1H-benzimidazol-1-yl]-2-thiophenecarboxamide] |
| < 100 | CC(Oc1cc(-n2cnc3cc(-c4cnn(C)c4)ccc32)sc1C(N)=O)c1ccnc(OC2CCNCC2)c1 (racemic) [Example 79, (+/−)-5-[5-(1-Methyl-1H-pyrazol-4-yl)-1H-benzimidazol-1-yl]-3-({1-[2-(4-piperidinyloxy)-4-pyridinyl]ethyl}oxy)-2-thiophenecarboxamide] |
| < 100 | CC(Oc1cc(-n2cnc3cc(-c4cnn(C)c4)ccc32)sc1C(N)=O)c1cccc(OC2CCNCC2)n1 (racemic) [Example 81, (+/−)-5-[5-(1-Methyl-1H-pyrazol-4-yl)-1H-benzimidazol-1-yl]-3-({1-[6-(4-piperidinyloxy)-2-pyridinyl]ethyl}oxy)-2-thiophenecarboxamide] |
| < 100 | CC(Oc1cc(-n2cnc3cc(-c4cnn(C)c4)ccc32)sc1C(N)=O)c1cccc(OC2CCN(C)CC2)n1 (racemic) [Example 82, (+/−)-3-[(1-{6-[(1-Methyl-4-piperidinyl)oxy]-2-pyridinyl}ethyl)oxy]-5-[5-(1-methyl-1H-pyrazol-4-yl)-1H-benzimidazol-1-yl]-2-thiophenecarboxamide] |
| < 100 | COc1cc2ncn(-c3cc(O[C@H](C)c4cccc(NCC5CCNCC5)c4Cl)c(C(N)=O)s3)c2cc1OC [Example 1, 5-[5,6-Bis(methyloxy)-1H-benzimidazol-1-yl]-3-[((1R)-1-{2-chloro-3-[(4-piperidinylmethyl)amino]phenyl}ethyl)oxy]-2-thiophenecarboxamide] |
| < 100 | COc1cc2ncn(-c3cc(O[C@H](C)c4cccc(NCC5CCN(C)CC5)c4Cl)c(C(N)=O)s3)c2cc1OC [Example 2] |
| < 100 | C[C@@H](Oc1cc(-n2cnc3cc(Cl)ccc32)sc1C(N)=O)c1cccc(OC2CCN(C)CC2)c1Cl [Example 3] |
| < 100 | C[C@@H](Oc1cc(-n2cnc3ccc(C#N)cc32)sc1C(N)=O)c1cccc(OC2CCN(C)CC2)c1Cl [Example 4, 3-((1R)-1-{2-chloro-3-[(1-methylpiperidin-4-yl)oxy]phenyl}-ethoxy)-5-(6-cyano-1H-benzimidazol-1-yl)thiophene-2-carboxamide] |
| < 100 | C[C@@H](Oc1cc(-n2cnc3ccc(C#N)cc32)sc1C(N)=O)c1cccc(OC2CCNCC2)c1Cl [Example 5, 3-{(1R)-1-[2-chloro-3(piperidin-4-yloxy)phenyl]ethoxy}-5-(6-cyano-1H-benzimidazol-1-yl)thiophene-2-carboxamide] |
| < 100 | C[C@@H](Oc1cc(-n2cnc3ccc(Br)cc32)sc1C(N)=O)c1cccc(OC2CCN(C)CC2)c1Cl [Example 6, 5-(6-Bromo-1H-benzimidazol-1-yl)-3-[((1R)-1-{2-chloro-3-[(1-methyl-4-piperidinyl)oxy]phenyl}ethyl)oxy]-2-thiophenecarboxamide] |
| < 100 | C[C@@H](Oc1cc(-n2cnc3ccc(Br)cc32)sc1C(N)=O)c1cccc(OC2CCNCC2)c1Cl [Example 7, 5-(6-Bromo-1H-benzimidazol-1-yl)-3-({(1R)-1-[2-chloro-3-(4-piperidinyloxy)phenyl]ethyl}oxy)-2-thiophenecarboxamide] |
| < 100 | C[C@@H](Oc1cc(-n2cnc3cc(Cl)ccc32)sc1C(N)=O)c1cccc(OC2CCNCC2)c1Cl [Example 8, 5-(5-Chloro-1H-benzimidazol-1-yl)-3-({(1R)-1-[2-chloro-3-(4-piperidinyloxy)phenyl]ethyl}oxy)-2-thiophenecarboxamide] |
| < 100 | Cc1ccc(-c2ccc3c(c2)ncn3-c2cc(O[C@H](C)c3cccc(OC4CCNCC4)c3Cl)c(C(N)=O)s2)cn1 [Example 9, 3-({(1R)-1-[2-chloro-3-(4-piperidinyloxy)phenyl]ethyl}oxy)-5-[5-(6-methyl-3-pyridinyl)-1H-benzimidazol-1-yl]-2-thiophenecarboxamide] |
| < 100 | Cc1ccc(-c2ccc3c(c2)ncn3-c2cc(O[C@H](C)c3cccc(OC4CCN(C)CC4)c3Cl)c(C(N)=O)s2)cn1 [Example 10, 3-[((1R)-1-{2-chloro-3-[(1-methyl-4-piperidinyl)oxy]phenyl}ethyl)oxy]-5-[5-(6-methyl-3-pyridinyl)-1H-benzimidazol-1-yl]-2-thiophenecarboxamide] |
| < 100 | C[C@@H](Oc1cc(-n2cnc3cc(-c4cccnc4)ccc32)sc1C(N)=O)c1cccc(OC2CCN(C)CC2)c1Cl [Example 11, 3-[((1R)-1-{2-chloro-3-[(1-methyl-4-piperidinyl)oxy]pheny}ethyl)oxy]-5-[5-(3-pyridinyl)-1H-benzimidazol-1-yl]-2-thiopnenecarboxamide] |
| < 100 | C[C@@H](Oc1cc(-n2cnc3cc(-c4cccnc4)ccc32)sc1C(N)=O)c1cccc(OC2CCNCC2)c1Cl [Example 12, 3-({(1R)-1-[2-chloro-3-(4-piperidinyloxy)phenyl]ethyl}oxy)-5-[5-(pyridinyl)-1H-benzimidazol-1-yl]-2-thiophenecarboxamide] |
| < 100 | C[C@@H](Oc1cc(-n2cnc3ccccc32)sc1C(N)=O)c1cccc(OC2CCN(C)CC2)c1Cl [Example 13, 5-(1H-benzimidazol-1-yl)-3-[((1R)-1-{2-chloro-3-[(1-methyl-4-piperidinyl)gxy]phenyl}ethyl)oxy]-2-thiophenecarboxamide] |
